Experimental data published in patent US12577257B2, “Heterocyclic compounds” (Hoffmann-La Roche Inc., priority 2018, dated 2026).

What follows are compounds tested against T1, MAGL (Homo sapiens, UniProt Q99685) (assay: MAGL inhibition, Table 1 values with no assay marker (2-AG or 4-NPA assay not stated)). Details: not given.
T1 sequence (Q99685 1-303): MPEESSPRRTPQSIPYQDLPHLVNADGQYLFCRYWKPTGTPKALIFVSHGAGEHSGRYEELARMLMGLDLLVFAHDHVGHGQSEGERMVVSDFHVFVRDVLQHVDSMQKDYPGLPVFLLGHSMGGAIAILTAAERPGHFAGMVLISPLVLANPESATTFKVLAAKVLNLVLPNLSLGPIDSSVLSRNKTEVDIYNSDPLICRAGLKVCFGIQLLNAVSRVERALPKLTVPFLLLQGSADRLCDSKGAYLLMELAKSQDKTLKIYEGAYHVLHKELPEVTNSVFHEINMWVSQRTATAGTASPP
Type: biochemical
Description: Compounds were profiled for MAGL inhibitory activity by measuring the enzymatic activity of MAGL by following the hydrolysis of 4-nitrophenylacetate resulting in 4-nitrophenol, which absorbs at 405-412 nm (G. G. Muccioli, G. Labar, D. M. Lambert, Chem. Bio. Chem. 2008, 9, 2704-2710). This assay is hereinafter abbreviated “4-NPA assay”.
The 4-NPA assay was carried out in 384 well assay plates (black with clear bottom, non-binding surface treated, Corning Ref. 3655) in a total volume of 40 μL. Compound dilutions were made in 100% DMSO (VWR Chemicals 23500.297) in a polypropylene plate in 3-fold dilution steps to give a final concentration range in the assay from 25 μM to 1.7 nM. 1 μL compound dilutions (100% DMSO) were added to 19 μL MAGL (recombinant wild-type) in assay buffer (50 mM TRIS (GIBCO, 15567-027), 1 mM EDTA (Fluka, 03690-100 ml)). The plate was shaked for 1 min at 2000 rpm (Variomag Teleshake) and then incubated for 15 min at RT. To start the reaction, 20 μL 4-Nitrophenylacetate (Sigma N-8130) in assay buffer with 6% EtOH was added. The final concentrations in the assay were 1 nM MAGL and 300 μM 4-Nitrophenylacetate. After shaking (1 min, 2000 rpm) and 5 min incubation at RT, the absorbance at 405 nm was measured for a first time (Molecular Devices, SpectraMax Paradigm). A second measurement was then done after incubation for 80 min at RT. From the two measurements, the slope was calculated by subtracting the first from the second measurement.
(§1) Alternatively, compounds were profiled for MAGL inhibitory activity by determining the enzymatic activity by following the hydrolysis of the natural substrate 2-arachidonoylglycerol resulting in arachidonic acid, which can be followed by mass spectrometry. This assay is hereinafter abbreviated “2-AG assay”.
(§2) The 2-AG assay was carried out in 384 well assay plates (PP, Greiner Cat #784201) in a total volume of 20 μL. Compound dilutions were made in 100% DMSO (VWR Chemicals 23500.297) in a polypropylene plate in 3-fold dilution steps to give a final concentration range in the assay from 12.5 μM to […]. 0.25 μL compound dilutions (100% DMSO) were added to 9 μL MAGL in assay buffer (50 mM TRIS (GIBCO, 15567-027), 1 mM EDTA (Fluka, 03690-100 ml), 0.01% (v/v) Tween. After shaking, the plate was incubated for 15 min at RT. To start the reaction, 10 μL 2-arachidonoylglycerol in assay buffer was added. The final concentrations in the assay was […] and 8 μM 2-arachidonoylglycerol. After shaking and 30 min incubation at RT, the reaction was quenched by the addition of 40 μL of acetonitrile containing 4 μM of d8-arachidonic acid. The amount of arachidonic acid was traced by an online SPE system (Agilent Rapidfire) coupled to a triple quadrupole mass spectrometer (Agilent 6460). A C18 SPE cartridge (G9205A) was used in an acetonitrile/water liquid setup. The mass spectrometer was operated in negative electrospray mode following the mass transitions 303.1→259.1 for arachidonic acid and 311.1→267.0 for d8-arachidonic acid. The activity of the compounds was calculated based on the ratio of intensities [arachidonic acid/d8-arachidonic acid].
Work on `O=C1CO[C@H]2CCN(C(=O)N3CC4(CC(Cc5ccc(F)cc5F)C4)C3)C[C@H]2N1` [Example 51, (4aR,8aS)-6-(6-(2,4-difluorobenzyl)-2-azaspiro[3.3]heptane-2-carbonyl)hexahdyro-2H-pyrido[4,3-b][1,4]oxazin-3(4H)-one] yielded an IC50 of 0.00017 µM.
`O=C1CO[C@H]2CCN(C(=O)N3CC4(CC(Cc5ccccc5O)C4)C3)C[C@H]2N1` [Example 74, (4aR,8aS)-6-(6-(2-hydroxybenzyl)-2-azaspiro[3.3]heptane-2-carbonyl)hexahydro-2H-pyrido[4,3-b][1,4]oxazin-3(4H)-one] gave an IC50 of 0.0005 µM.
For `O=C1CO[C@H]2CCN(C(=O)N3CC4(C3)CN(c3cc(C(F)(F)F)ccc3C(F)(F)F)C4)C[C@H]2N1` [Example 65, (4aR,8aS)-6-(6-(2,5-bis(trifluoromethyl)phenyl)-2,6-diazaspiro[3.3]heptane-2-carbonyl)hexahydro-2H-pyrido[4,3-b][1,4]oxazin-3(4H)-one], the IC50 was 1.1 µM.
`O=C1CO[C@H]2CCN(C(=O)N3CCC4(C3)CN(c3ccc(N5CCCC5=O)cc3)C4)C[C@H]2N1` [Example 61, (4aR,8aS)-6-(2-(4-(2-oxopyrrolidin-1-yl)phenyl)-2,6-diazaspiro[3.4]octane-6-carbonyl)hexahydro-2H-pyrido[4,3-b][1,4]oxazin-3(4H)-one] showed an IC50 of 2.3 µM.
`O=C1CO[C@H]2CCN(C(=O)N3CC4(CC(S(=O)(=O)c5ccc(F)cc5Cl)C4)C3)C[C@H]2N1` [Example 67, (4aR,8aS)-6-(6-((2-chloro-4-fluorophenyl)sulfonyl)-2-azaspiro[3.3]heptane-2-carbonyl)hexahydro-2H-pyrido[4,3-b][1,4]oxazin-3(4H)-one] showed an IC50 of 0.0671 µM.

Each compound was assayed against T1, MAGL (assay: 2-AG assay: MAGL hydrolysis of 2-arachidonoylglycerol to arachidonic acid, followed by mass spectrometry). Details: footnote [a]: measured in 2-AG assay.
Type: biochemical
Description: as §1, §2
`O=C1CO[C@H]2CCN(C(=O)N3CCC4(CC3)CN(S(=O)(=O)c3ccc(C(F)(F)F)cc3)C4)C[C@H]2N1` [Example 37, (4aR,8aS)-6-(2-((4-(Trifluoromethyl)phenyl)sulfonyl)-2,7-diazaspiro[3.5]nonane-7-carbonyl)hexahydro-2H-pyrido[4,3-b][1,4]oxazin-3(4H)-one] showed an IC50 of 0.389 µM.
For `O=C1CO[C@H]2CCN(C(=O)N3CCC4(CC3)CC(Oc3ccc(F)cc3Cl)C4)C[C@H]2N1` [Example 42, (4aR,8aS)-6-[2-(2-Chloro-4-fluoro-phenoxy)-7-azaspiro[3.5]nonane-7-carbonyl]-4,4a,5,7,8,8a-hexahydropyrido[4,3-b][1,4]oxazin-3-one], the IC50 was 0.0021 µM.
Compound `CN([C@H]1COC2(CCN(C(=O)N3CC[C@@H]4OCC(=O)N[C@@H]4C3)CC2)C1)S(=O)(=O)c1ccc(F)cc1Cl` [Example 24, 2-Chloro-4-fluoro-N-methyl-N-((R)-8-((4aR,8aS)-3-oxooctahydro-2H-pyrido[4,3-b][1,4]oxazine-6-carbonyl)-1-oxa-8-azaspiro[4.5]decan-3-yl)benzenesulfonamide] has an IC50 of 0.0209 µM.
For `O=C1CO[C@H]2CCN(C(=O)N3CCC4(CC3)CC(NCc3ccc(F)cc3Cl)CO4)C[C@H]2N1` (single isomer, unassigned) [Example 36], the IC50 was 0.279 µM.
`O=C1CO[C@H]2CCN(C(=O)N3CCC4(CC3)CN(Cc3ccc(C(F)(F)F)cc3F)C4)C[C@H]2N1` [Example 13, (4aR,8aS)-6-(2-(2-Fluoro-4-(trifluoromethyl)benzyl)-2,7-diazaspiro[3.5]nonane-7-carbonyl)hexahydro-2H-pyrido[4,3-b][1,4]oxazin-3(4H)-one] showed an IC50 of 0.0764 µM.
`O=C1CO[C@H]2CCN(C(=O)N3CCC4(CC3)CC(Oc3ccc(F)cc3F)C4)C[C@H]2N1` [Example 40, (4aR,8aS)-6-[2-(2,4-Difluorophenoxy)-7-azaspiro[3.5]nonane-7-carbonyl]-4,4a,5,7,8,8a-hexahydropyrido[4,3-b][1,4]oxazin-3-one] showed an IC50 of 0.0113 µM.
Work on `O=C1CO[C@H]2CCN(C(=O)N3CC4(CC(Oc5ccc(F)cc5F)C4)C3)C[C@H]2N1` [Example 8, (4aR,8aS)-6-(6-(2,4-Difluorophenoxy)-2-azaspiro[3.3]heptane-2-carbonyl)hexahydro-2H-pyrido[4,3-b][1,4]oxazin-3(4H)-one] yielded an IC50 of 0.0107 µM.
Work on `O=C1CO[C@H]2CCN(C(=O)N3CCC4(CC3)CN(S(=O)(=O)c3ccc(F)cc3Cl)C4)C[C@H]2N1` [Example 27, (4aR,8aS)-6-(2-((2-Chloro-4-fluorophenyl)sulfonyl)-2,7-diazaspiro[3.5]nonane-7-carbonyl)hexahydro-2H-pyrido[4,3-b][1,4]oxazin-3(4H)-one] yielded an IC50 of 0.0331 µM.
`O=C1CO[C@H]2CCN(C(=O)N3CC4(CC(Oc5cc(F)cc(C(F)(F)F)c5)C4)C3)C[C@H]2N1` [Example 9, (4aR,8aS)-6-(6-(3-Fluoro-5-(trifluoromethyl)phenoxy)-2-azaspiro[3.3]heptane-2-carbonyl)hexahydro-2H-pyrido[4,3-b][1,4]oxazin-3(4H)-one] gave an IC50 of 0.0125 µM.
For `O=C1CO[C@H]2CCN(C(=O)N3CC4(CC(COc5ccc(C(F)(F)F)cc5F)C4)C3)C[C@H]2N1` [Example 43, (4aR,8aS)-6-[6-[[2-Fluoro-4-(trifluoromethyl)phenoxy]methyl]-2-azaspiro[3.3]heptane-2-carbonyl]-4,4a,5,7,8,8a-hexahydropyrido[4,3-b][1,4]oxazin-3-one], the IC50 was 0.001 µM.
`O=C1CO[C@H]2CCN(C(=O)N3CCC4(CC3)CC(NS(=O)(=O)c3cccc(C(F)(F)F)c3)CO4)C[C@H]2N1` (stereo in doubt) [Example 32, N-((S)-8-((4aR,8aS)-3-Oxooctahydro-2H-pyrido[4,3-b][1,4]oxazine-6-carbonyl)-1-oxa-8-azaspiro[4.5]decan-3-yl)-3-(trifluoromethyl)benzenesulfonamide] was tested, and the IC50 was 0.124 µM.
Work on `COc1ccc(C(F)(F)F)cc1OC1CC2(C1)CN(C(=O)N1CC[C@@H]3OCC(=O)N[C@@H]3C1)C2` [Example 6, (4aR,8aS)-6-(6-(2-Methoxy-5-(trifluoromethyl)phenoxy)-2-azaspiro[3.3]heptane-2-carbonyl)hexahydro-2H-pyrido[4,3-b][1,4]oxazin-3(4H)-one] yielded an IC50 of 0.0028 µM.
For `O=C1CO[C@H]2CCN(C(=O)N3CC4(CC(Oc5ccc(OC(F)(F)F)cc5F)C4)C3)C[C@H]2N1` [Example 4, (4aR,8aS)-6-(6-(2-Fluoro-4-(trifluoromethoxy)phenoxy)-2-azaspiro[3.3]heptane-2-carbonyl)hexahydro-2H-pyrido[4,3-b][1,4]oxazin-3(4H)-one], the IC50 was 0.003 µM.
Compound `O=C1CO[C@H]2CCN(C(=O)N3CC4(CC(OCc5ccc(C(F)(F)F)cc5F)C4)C3)C[C@H]2N1` [Example 28, (4aR,8aS)-6-(6-((2-Fluoro-4-(trifluoromethyl)benzyl)oxy)-2-azaspiro[3.3]heptane-2-carbonyl)hexahydro-2H-pyrido[4,3-b][1,4]oxazin-3(4H)-one] has an IC50 of 0.0364 µM.
Compound `O=C1CO[C@H]2CCN(C(=O)N3CCC4(CC3)CC(NCc3ccc(F)cc3Cl)CO4)C[C@H]2N1` (single isomer, unassigned) [Example 35] has an IC50 of 0.182 µM.
With `CN(Cc1ccc(F)cc1Cl)C1COC2(CCN(C(=O)N3CC[C@@H]4OCC(=O)N[C@@H]4C3)CC2)C1` (single isomer, unassigned) [Example 34] the IC50 was 0.133 µM.
`Cc1ccc(COC2CC3(C2)CN(C(=O)N2CC[C@@H]4OCC(=O)N[C@@H]4C2)C3)cc1C(F)(F)F` [Example 26, (4aR,8aS)-6-(6-((4-Methyl-3-(trifluoromethyl)benzyl)oxy)-2-azaspiro[3.3]heptane-2-carbonyl)hexahydro-2H-pyrido[4,3-b][1,4]oxazin-3(4H)-one] gave an IC50 of 0.031 µM.
